Measured values published in patent US20150105252A1, “SUBSTITUTED PYRAZOLES AS HERBICIDES” (E I DU PONT DE NEMOURS AND COMPANY, priority 2013, published 2015).

Key:
velvetleaf = assay: Test C preemergence; type: in vivo, Abutilon theophrasti
Outline: (§1)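 Herbicidal effect is expressed as percent visual control (0–100) judged against untreated plants 13 to 15 days after treatment in the greenhouse. Preemergence pots contained seeds in a soil–sand blend; postemergence plants, 2–18 cm tall, grew in peat-based planting medium.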

pigweed [1] = assay: Test A preemergence; type: in vivo, Amaranthus retroflexus; conditions: preemergence; for Pigweed plant response rating (0 to 100 scale): 125 g ai/ha, visual injury approx. 10 days after treatment; for Pigweed plant response rating: 500 g ai/ha, visual injury after approx. 10 days, 0 to 100 scale (0 no effect, 100 complete control)
Outline: (§2)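 Growth medium: loam soil blended with sand. Preemergence treatment used a directed soil spray right after planting; postemergence treatment targeted seedlings at one to two leaves (2–10 cm height). Response was judged by eye relative to untreated plants about 10 days later on a 0–100 control scale.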

wheat [2] = assay: Test C preemergence; type: in vivo, Triticum aestivum
Outline: as §1

johnsongrass = assay: Test C preemergence; type: in vivo, Sorghum halepense
Outline: as §1

waterhemp = assay: Test C preemergence; type: in vivo, Amaranthus rudis
Outline: as §1

wheat [3] = assay: Test A postemergence; type: in vivo, Triticum aestivum; conditions: Postemergence
Outline: as §2

corn [4] = assay: Test C preemergence; type: in vivo, Zea mays
Outline: as §1

crabgrass, large = assay: Test C preemergence; type: in vivo, Digitaria sanguinalis
Outline: as §1

pigweed [5] = assay: Test C preemergence; type: in vivo, Amaranthus retroflexus
Outline: as §1

barnyardgrass = assay: Test C preemergence; type: in vivo, Echinochloa crus-galli; conditions: preemergence; for Plant response rating, Barnyardgrass: 125 g ai/ha, scale 0 to 100, 0 = no effect, 100 = complete control
Outline: as §1

foxtail, giant = assay: Test A preemergence; type: in vivo, Setaria faberii; conditions: preemergence; for Foxtail, Giant plant response rating (0 to 100 scale): 125 g ai/ha, visual injury approx. 10 days after treatment; for Foxtail, Giant plant response rating: 500 g ai/ha, visual injury after approx. 10 days, 0 to 100 scale (0 no effect, 100 complete control)
Outline: as §2

corn [6] = assay: Test A preemergence; type: in vivo, Zea mays; conditions: preemergence; for Corn plant response rating (0 to 100 scale): 125 g ai/ha, visual injury approx. 10 days after treatment; for Corn plant response rating: 500 g ai/ha, visual injury after approx. 10 days, 0 to 100 scale (0 no effect, 100 complete control)
Outline: as §2

morningglory = assay: Test C preemergence; type: in vivo, Ipomoea coccinea
Outline: as §1

[7] = preemergence, 31 g ai/ha, visual rating, scale 0 to 100 (0 no effect, 100 complete control), 13 to 15 days
[8] = preemergence, 62 g ai/ha, scale 0 to 100 (0 no effect, 100 complete control), 13 to 15 days
[9] = preemergence, 125 g ai/ha, 13 to 15 days, scale 0 to 100, 0 = no effect, 100 = complete control
[10] = preemergence, 250 g ai/ha, scale 0 to 100, 0 is no effect, 100 is complete control
[11] = 125 g ai/ha, 0 to 100 scale, 0 no effect, 100 complete control
[12] = 500 g ai/ha, 0 to 100 scale (0 no effect, 100 complete control)
[13] = 31 g ai/ha, visual rating, scale 0 to 100 (0 no effect, 100 complete control), 13 to 15 days
[14] = 62 g ai/ha, scale 0 to 100 (0 no effect, 100 complete control), 13 to 15 days
[15] = 250 g ai/ha, scale 0 to 100, 0 is no effect, 100 is complete control
[16] = Preemergence, rate head not shown (block before 16 g ai/ha), scale 0 to 100

CCCNC(=O)c1cc(CCC)n(Cc2cc(C(F)(F)F)nn2C)n1 [Compound 198]
100: Plant response rating, Velvetleaf (velvetleaf; [9]) | Velvetleaf plant response rating (velvetleaf; [10]) | Pigweed plant response rating (0 to 100 scale) (pigweed [1]) | Pigweed plant response rating (pigweed [1]) | Plant response rating, Johnsongrass (johnsongrass; [9]) | Johnsongrass plant response rating (johnsongrass; [10]) | Plant response rating, Waterhemp (waterhemp; [9]) | Waterhemp plant response rating (waterhemp; [10]) | Crabgrass, Large plant response rating (crabgrass, large; [8]) | Plant response rating, Crabgrass, Large (crabgrass, large; [9]) | Crabgrass, Large plant response rating (crabgrass, large; [10]) | Pigweed plant response rating (pigweed [5]; [7]) | Pigweed plant response rating (pigweed [5]; [8]) | Plant response rating, Pigweed (pigweed [5]; [9]) | Pigweed plant response rating (pigweed [5]; [10]) | Barnyardgrass plant response rating (barnyardgrass; [13]) | Barnyardgrass plant response rating (barnyardgrass; [14]) | Plant response rating, Barnyardgrass (barnyardgrass; 13 to 15 days) | Barnyardgrass plant response rating (barnyardgrass; [15]) | Foxtail, Giant plant response rating (0 to 100 scale) (foxtail, giant) | Morningglory plant response rating (morningglory; [8]) | Plant response rating, Morningglory (morningglory; [9]) | Morningglory plant response rating (morningglory; [10])
98: Waterhemp plant response rating (waterhemp; [7]) | Waterhemp plant response rating (waterhemp; [8]) | Corn plant response rating (corn [4]; [10]) | Crabgrass, Large plant response rating (crabgrass, large; [7])
55: Corn plant response rating (corn [4]; [8])
25: Johnsongrass plant response rating (johnsongrass; [7])
90: Plant response rating, Wheat (wheat [2]; [9]) | Wheat plant response rating (wheat [2]; [10]) | Wheat plant response rating (wheat [3]; [12]) | Foxtail, Giant plant response rating (foxtail, giant) | Corn plant response rating (corn [6])
5: Wheat plant response rating (wheat [2]; [7]) | Corn plant response rating (corn [4]; [7])
95: Morningglory plant response rating (morningglory; [7])
60: Wheat plant response rating (wheat [3]; [11])
85: Velvetleaf plant response rating (velvetleaf; [8]) | Plant response rating, Corn (corn [4]; [9])
0: Corn plant response rating (0 to 100 scale) (corn [6])
80: Johnsongrass plant response rating (johnsongrass; [8])
35: Velvetleaf plant response rating (velvetleaf; [7]) | Wheat plant response rating (wheat [2]; [8])

CCc1cc(C(=O)NCC2CC2)nn1Cc1ccnc(C(F)(F)F)c1 [Compound 199]
20: Corn plant response rating (corn [4]; [7])
90: Plant response rating, Wheat (wheat [2]; [9]) | Wheat plant response rating (wheat [2]; [10]) | Corn plant response rating (corn [4]; [10]) | Corn plant response rating (corn [6])
75: Plant response rating, Corn (corn [4]; [9])
98: Plant response rating, Johnsongrass (johnsongrass; [9]) | Waterhemp plant response rating (waterhemp; [7]) | Crabgrass, Large plant response rating (crabgrass, large; [7]) | Plant response rating, Morningglory (morningglory; [9])
65: Corn plant response rating (corn [4]; [8])
100: Velvetleaf plant response rating (velvetleaf; [8]) | Plant response rating, Velvetleaf (velvetleaf; [9]) | Velvetleaf plant response rating (velvetleaf; [10]) | Pigweed plant response rating (0 to 100 scale) (pigweed [1]) | Pigweed plant response rating (pigweed [1]) | Johnsongrass plant response rating (johnsongrass; [10]) | Waterhemp plant response rating (waterhemp; [8]) | Plant response rating, Waterhemp (waterhemp; [9]) | Waterhemp plant response rating (waterhemp; [10]) | Crabgrass, Large plant response rating (crabgrass, large; [8]) | Plant response rating, Crabgrass, Large (crabgrass, large; [9]) | Crabgrass, Large plant response rating (crabgrass, large; [10]) | Pigweed plant response rating (pigweed [5]; [7]) | Pigweed plant response rating (pigweed [5]; [8]) | Plant response rating, Pigweed (pigweed [5]; [9]) | Pigweed plant response rating (pigweed [5]; [10]) | Barnyardgrass plant response rating (barnyardgrass; [14]) | Plant response rating, Barnyardgrass (barnyardgrass; 13 to 15 days) | Barnyardgrass plant response rating (barnyardgrass; [15]) | Foxtail, Giant plant response rating (0 to 100 scale) (foxtail, giant) | Foxtail, Giant plant response rating (foxtail, giant) | Morningglory plant response rating (morningglory; [8]) | Morningglory plant response rating (morningglory; [10])
70: Johnsongrass plant response rating (johnsongrass; [8]) | Wheat plant response rating (wheat [3]; [11]) | Corn plant response rating (0 to 100 scale) (corn [6])
95: Barnyardgrass plant response rating (barnyardgrass; [13])
40: Velvetleaf plant response rating (velvetleaf; [7])
80: Wheat plant response rating (wheat [3]; [12])
60: Wheat plant response rating (wheat [2]; [7]) | Morningglory plant response rating (morningglory; [7])
85: Wheat plant response rating (wheat [2]; [8])
45: Johnsongrass plant response rating (johnsongrass; [7])

CCc1cc(C(=O)NC2CC2)nn1Cc1ccnc(OCC(F)(F)F)c1 [Compound 200]
90: Plant response rating, Johnsongrass (johnsongrass; [9]) | Plant response rating, Barnyardgrass (barnyardgrass; 13 to 15 days) | Corn plant response rating (corn [6])
70: Velvetleaf plant response rating (velvetleaf; [8]) | Barnyardgrass plant response rating (barnyardgrass; [14])
0: Wheat plant response rating (wheat [2]; [7]) | Corn plant response rating (corn [4]; [7])
50: Johnsongrass plant response rating (johnsongrass; [7])
35: Plant response rating, Corn (corn [4]; [9])
98: Johnsongrass plant response rating (johnsongrass; [10]) | Barnyardgrass plant response rating (barnyardgrass; [15]) | Plant response rating, Morningglory (morningglory; [9])
60: Corn plant response rating (0 to 100 scale) (corn [6])
80: Johnsongrass plant response rating (johnsongrass; [8]) | Corn plant response rating (corn [4]; [10])
75: Wheat plant response rating (wheat [2]; [10])
40: Velvetleaf plant response rating (velvetleaf; [7]) | Wheat plant response rating (wheat [3]; [11])
55: Morningglory plant response rating (morningglory; [7])
100: Plant response rating, Velvetleaf (velvetleaf; [9]) | Velvetleaf plant response rating (velvetleaf; [10]) | Pigweed plant response rating (0 to 100 scale) (pigweed [1]) | Pigweed plant response rating (pigweed [1]) | Waterhemp plant response rating (waterhemp; [7]) | Waterhemp plant response rating (waterhemp; [8]) | Plant response rating, Waterhemp (waterhemp; [9]) | Waterhemp plant response rating (waterhemp; [10]) | Wheat plant response rating (wheat [3]; [12]) | Crabgrass, Large plant response rating (crabgrass, large; [7]) | Crabgrass, Large plant response rating (crabgrass, large; [8]) | Plant response rating, Crabgrass, Large (crabgrass, large; [9]) | Crabgrass, Large plant response rating (crabgrass, large; [10]) | Pigweed plant response rating (pigweed [5]; [7]) | Pigweed plant response rating (pigweed [5]; [8]) | Plant response rating, Pigweed (pigweed [5]; [9]) | Pigweed plant response rating (pigweed [5]; [10]) | Foxtail, Giant plant response rating (0 to 100 scale) (foxtail, giant) | Foxtail, Giant plant response rating (foxtail, giant) | Morningglory plant response rating (morningglory; [10])
45: Plant response rating, Wheat (wheat [2]; [9]) | Barnyardgrass plant response rating (barnyardgrass; [13])
95: Morningglory plant response rating (morningglory; [8])
15: Wheat plant response rating (wheat [2]; [8]) | Corn plant response rating (corn [4]; [8])

CCc1cc(C(=O)NC2CC2)nn1Cc1cc(C(F)(F)C(F)(F)F)nn1C [Compound 226]
70: Corn plant response rating (corn [4]; [10])
25: Plant response rating, Velvetleaf (velvetleaf; [16])
100: Plant response rating, Velvetleaf (velvetleaf; [9]) | Velvetleaf plant response rating (velvetleaf; [10]) | Pigweed plant response rating (0 to 100 scale) (pigweed [1]) | Plant response rating, Johnsongrass (johnsongrass; [9]) | Plant response rating, Waterhemp (waterhemp; [16]) | Waterhemp plant response rating (waterhemp; [8]) | Plant response rating, Waterhemp (waterhemp; [9]) | Waterhemp plant response rating (waterhemp; [10]) | Crabgrass, Large plant response rating (crabgrass, large; [8]) | Plant response rating, Crabgrass, Large (crabgrass, large; [9]) | Crabgrass, Large plant response rating (crabgrass, large; [10]) | Plant response rating, Pigweed (pigweed [5]; [16]) | Pigweed plant response rating (pigweed [5]; [8]) | Plant response rating, Pigweed (pigweed [5]; [9]) | Pigweed plant response rating (pigweed [5]; [10]) | Barnyardgrass plant response rating (barnyardgrass; [15]) | Foxtail, Giant plant response rating (0 to 100 scale) (foxtail, giant) | Foxtail, Giant plant response rating (foxtail, giant) | Plant response rating, Morningglory (morningglory; [9]) | Morningglory plant response rating (morningglory; [10])
15: Plant response rating, Wheat (wheat [2]; [16]) | Corn plant response rating (corn [4]; [8])
95: Plant response rating, Barnyardgrass (barnyardgrass; 13 to 15 days)
30: Plant response rating, Corn (corn [4]; [9]) | Corn plant response rating (0 to 100 scale) (corn [6])
60: Wheat plant response rating (wheat [3]; [11])
90: Wheat plant response rating (wheat [3]; [12])
10: Wheat plant response rating (wheat [2]; [10]) | Plant response rating, Johnsongrass (johnsongrass; [16]) | Plant response rating, Corn (corn [4]; Preemergence, rate head not shown (block before 16 g ai/ha), scale 0 to 100, 100 is complete control) | Barnyardgrass plant response rating (barnyardgrass; [13])
85: Johnsongrass plant response rating (johnsongrass; [10]) | Plant response rating, Morningglory (morningglory; [16]) | Morningglory plant response rating (morningglory; [8])
80: Velvetleaf plant response rating (velvetleaf; [8]) | Plant response rating, Crabgrass, Large (crabgrass, large; [16])
0: Wheat plant response rating (wheat [2]; [8]) | Plant response rating, Wheat (wheat [2]; [9])
55: Johnsongrass plant response rating (johnsongrass; [8])
50: Corn plant response rating (corn [6])
65: Barnyardgrass plant response rating (barnyardgrass; [14])
